{"source": "patent US9550738B2", "about": "“Bicyclic compounds as kinases inhibitors” (HangzhouDeRenYuCheng Biotechnology Ltd, priority 2012, dated 2017)", "key": {"Btk [1]": {"biological_target": "T1, Btk (Homo sapiens, UniProt Q06187)", "T1 sequence (Q06187 whole entry, species assumed)": "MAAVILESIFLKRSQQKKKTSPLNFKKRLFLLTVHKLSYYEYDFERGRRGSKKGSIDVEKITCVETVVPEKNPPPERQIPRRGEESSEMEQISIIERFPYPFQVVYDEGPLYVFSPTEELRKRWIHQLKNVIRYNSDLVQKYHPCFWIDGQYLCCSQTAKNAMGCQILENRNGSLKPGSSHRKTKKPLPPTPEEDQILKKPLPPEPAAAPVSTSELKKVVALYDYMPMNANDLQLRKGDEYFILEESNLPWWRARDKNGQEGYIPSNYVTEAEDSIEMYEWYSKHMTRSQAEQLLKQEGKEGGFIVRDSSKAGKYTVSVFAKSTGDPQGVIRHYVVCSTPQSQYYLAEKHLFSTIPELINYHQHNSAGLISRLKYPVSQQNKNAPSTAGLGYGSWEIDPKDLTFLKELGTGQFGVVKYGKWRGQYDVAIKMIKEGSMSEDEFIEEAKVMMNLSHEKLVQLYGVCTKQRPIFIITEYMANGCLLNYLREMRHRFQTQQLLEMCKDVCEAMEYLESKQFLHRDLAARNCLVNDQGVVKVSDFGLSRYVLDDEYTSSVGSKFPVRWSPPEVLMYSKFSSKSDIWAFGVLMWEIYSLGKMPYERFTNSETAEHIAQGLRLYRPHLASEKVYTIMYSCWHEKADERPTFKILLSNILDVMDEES", "experiment": "In vitro Btk competition binding assay (kinase-tagged T7 phage, liganded affinity beads, qPCR readout)", "design": "made in house; host or cells: E. coli BL21-derived host (T7 phage display) or HEK-293 cells", "details": "11-point 3-fold serial dilution, top concentration 10,000 nM, Hill slope -1", "method": "An in vitro assay which determines the ability of a test compound to inhibit Btk.\nKinase-tagged T7 phage strains were prepared in an E. coli host derived from the BL21 strain. E. coli were grown to log-phase and infected with T7 phage and incubated with shaking at 32° C. until lysis. The lysates were centrifuged and filtered to remove cell debris. The remaining kinases were produced in HEK-293 cells and subsequently tagged with DNA for qPCR detection. Streptavidin-coated magnetic beads were treated with biotinylated small molecule ligands for 30 minutes at room temperature to generate affinity resins for kinase assays. The liganded beads were blocked with excess biotin and washed with blocking buffer (SeaBlock (Pierce), 1% BSA, 0.05% Tween 20, 1 mM DTT) to remove unbound ligand and to reduce non-specific binding. Binding reactions were assembled by combining kinases, liganded affinity beads, and test compounds in 1× binding buffer (20% SeaBlock, 0.17× PBS, 0.05% Tween 20, 6 mM DTT). All reactions were performed in polystyrene 96-well plates in a final volume of 0.135 ml. The assay plates were incubated at room temperature with shaking for 1 hour and the affinity beads were washed with wash buffer (1× PBS, 0.05% Tween 20). The beads were then re-suspended in elution buffer (1× PBS, 0.05% Tween 20, 0.5 μM non-biotinylated affinity ligand) and incubated at room temperature with shaking for 30 minutes. The kinase concentration in the eluates was measured by qPCR.\nAn 11-point 3-fold serial dilution of each test compound was prepared in 100% DMSO at 100× final test concentration and subsequently diluted to 1× in the assay (final DMSO concentration=1%). Kds were determined using a compound top concentration=10,000 nM. If the initial Kd determined was <0.5 nM (the lowest concentration tested), the measurement was repeated with a serial dilution starting at a lower top concentration.\nBinding constants (Kds) were calculated with a standard dose-response curve using the Hill equation: Response=Background+(Signal−Background)/(1+(Kd^Hill Slope/Dose^Hill Slope)). The Hill Slope was set to −1. Curves were fitted using a non-linear least square fit with the Levenberg-Marquardt algorithm.\nThe following Table 1 lists compounds representative of the invention and their corresponding inhibitory activity against Btk."}, "Btk [2]": {"biological_target": "T1, Btk", "experiment": "Btk Ramos Cellular Assay (phosphorylation of the Btk substrate PLC gamma.2 after anti-IgM stimulation)", "assay_type": "cell-based", "details": "Ramos cells, 1 hour with compound at 1, 0.1, 0.01 or 0.001 μM, goat F(ab')2 Anti-Human IgM stimulation, blot for PLC gamma.2 phosphorylation; read-out: inhibition of Btk signaling in Ramos cellular assay, IC50", "method": "Ramos cells were grown in suspension in T225 flasks, spun down, resuspended in 50 mL serum-free media and incubated for 1 hour. Compound was added to Ramos cells in serum free media to a final concentration of 1, 0.1, 0.01, or 0.001 μM. Ramos cells were incubated with compound for 1 hour, washed again and resuspended in 100 μL serum-free media. Cells were then stimulated with 1 μg of goat F(ab′)2 Anti-Human IgM and incubated on ice for 10 minutes to activate B cell receptor signaling pathways. After 10 minutes, the cells were washed once with PBS and then lysed on ice with Invitrogen Cell Extraction buffer. Sixteen μg total protein from lysates was loaded on gels and blots were probed for phosphorylation of the Btk substrate PLC gamma.2."}}, "data": [{"smiles": "COc1cc2ncnc(Nc3ccc(Oc4ccccc4)cc3)c2cc1NC(=O)/C=C/CN(C)C", "note": "[Compound 27, (E)-4-(dimethylamino)-N-(7-methoxy-4-((4-phenoxyphenyl)amino)quinazolin-6-yl)but-2-enamide]", "values": [{"measurement": "Kd", "setting": "Btk [1]", "value": 2.2, "unit": "nM"}, {"measurement": "IC50", "setting": "Btk [2]", "value": "< 100", "unit": "nM"}]}, {"smiles": "CCOc1cc2ncnc(Nc3ccc(Oc4ccccc4)cc3)c2cc1NC(=O)/C=C/CN(C)C", "note": "[Compound 31, (E)-4-(dimethylamino)-N-(7-ethoxy-4-((4-phenoxyphenyl)amino)quinazolin-6-yl)but-2-enamide]", "values": [{"measurement": "Kd", "setting": "Btk [1]", "value": 2.6, "unit": "nM"}, {"measurement": "IC50", "setting": "Btk [2]", "value": "< 100", "unit": "nM"}]}, {"smiles": "CN(C)C/C=C/C(=O)Nc1cc2c(Nc3ccc(Oc4ccccc4)cc3)ncnc2cc1O[C@H]1CCOC1", "note": "[Compound 35, (S,E)-4-(dimethylamino)-N-(4-((4-phenoxyphenyl)amino)-7-((tetrahydrofuran-3-yl)oxy)quinazolin-6-yl)but-2-enamide]", "values": [{"measurement": "Kd", "setting": "Btk [1]", "value": "< 100", "unit": "nM"}]}, {"smiles": "C=CC(=O)Nc1cc2c(Nc3ccc(Oc4ccccc4)cc3)ncnc2cc1OC", "note": "[Compound 36, N-(7-methoxy-4-((4-phenoxyphenyl)amino)quinazolin-6-yl)acrylamide]", "values": [{"measurement": "Kd", "setting": "Btk [1]", "value": 2.3, "unit": "nM"}]}, {"smiles": "C=CC(=O)Nc1cc2c(Nc3ccc(Oc4ccccc4)cc3)ncnc2cc1OCC", "note": "[Compound 37, N-(7-ethoxy-4-(4-phenoxyphenylamino)quinazolin-6-yl)acrylamide]", "values": [{"measurement": "Kd", "setting": "Btk [1]", "value": 1.2, "unit": "nM"}]}, {"smiles": "C=CC(=O)Nc1cc2c(Nc3ccc(Oc4ccccc4)cc3)ncnc2cc1O[C@H]1CCOC1", "note": "[Compound 38, (S)-N-(4-((4-phenoxyphenyl)amino)-7-((tetrahydrofuran-3-yl)oxy)quinazolin-6-yl)acrylamide]", "values": [{"measurement": "Kd", "setting": "Btk [1]", "value": "< 100", "unit": "nM"}]}]}
